According to patent US9809574B2, “Isoindoline or isoquinoline compounds, a process for their preparation and pharmaceutical compositions containing them” (LES LABORATOIRES SERVIER, priority 2013, dated 2017):
Structures can show the parent of a compound that is named as a salt.

Experiments:
Bcl-2 protein = Bcl-2 protein (histag-Bcl-2, UniProtKB P10415) (Homo sapiens (Human), UniProt P10415); experiment: Inhibition of Bcl-2 by the fluorescence polarisation technique; format: binding; details: fluorescence polarisation test; incubation for 2 hours; read-out: IC50 (nM) Bcl-2 FP
Source text: For partial inhibitors, the percentage fluorescence polarisation inhibition for a given concentration of the test compound is indicated.

[1] = system: RS4; 11 leukaemia cell line; experiment: In vitro cytotoxicity, Microculture Tetrazolium Assay (MTT); format: cell-based; details: Homo sapiens, 11 cells exposed for 48 hours
Protocol: The cytotoxicity studies were carried out on the RS4; 11 leukaemia cell line and on H146 small Cell Lung Carcinoma cell line. The cells are distributed onto microplates and exposed to the test compounds for 48 hours. The cell viability is then quantified by a colorimetric assay, the Microculture Tetrazolium Assay (Cancer Res., 1987, 47, 939-942).

Chain of Bcl-2 protein (P10415 whole entry): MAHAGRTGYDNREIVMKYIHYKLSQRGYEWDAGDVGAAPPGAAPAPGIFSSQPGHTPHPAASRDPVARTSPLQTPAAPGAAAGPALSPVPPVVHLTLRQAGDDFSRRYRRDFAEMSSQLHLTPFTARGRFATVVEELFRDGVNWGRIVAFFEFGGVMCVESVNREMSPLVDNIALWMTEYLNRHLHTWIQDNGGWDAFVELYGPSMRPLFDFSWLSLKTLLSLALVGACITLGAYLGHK

| IC50 (Bcl-2 protein) [nM] | Structure (SMILES) | IC50 [1] [nM] |
| --- | --- | --- |
| 4.7 | C[C@@H]1Cc2ccccc2CN1C(=O)c1cc2c(cc1-c1cc(C(=O)N(C)c3ccc(O)cc3)c3n1CCCC3)CCN(C(=O)c1ccccc1)C2 [Example 35, 3-{2-Benzoyl-7-[(3R)-3-methyl-1,2,3,4-tetrahydroisoquinoline-2-carbonyl]-1,2,3,4-tetrahydroisoquinolin-6-yl}-N-(4-hydroxyphenyl)-N-methyl-5,6,7,8-tetrahydroindolizine-1-carboxamide] | 8.5 |
| 18 | CN(C(=O)c1cc(-c2cc3c(cc2C(=O)N2Cc4ccccc4C[C@H]2CN2CCOCC2)CN(S(=O)(=O)c2ccccc2)CC3)n2c1CCCC2)c1ccc(O)cc1 [Example 3, 3-[2-(Benzenesulfonyl)-7-[(3S)-3-(morpholin-4-ylmethyl)-1,2,3,4-tetrahydroisoquinoline-2-carbonyl]-1,2,3,4-tetrahydroisoquinolin-6-yl]-N-(4-hydroxyphenyl)-N-methyl-5,6,7,8-tetrahydroindolizine-1-carboxamide] | 236 |
| 18 | C[C@@H]1Cc2ccccc2CN1C(=O)c1cc2c(cc1-c1cc(C(=O)N(C)c3ccc(O)cc3)c3n1CCCC3)CN(C(=O)COc1cccc(Cl)c1)C2 [Example 50, 3-{2-[2-(3-Chlorophenoxy)acetyl]-6-[(3R)-3-methyl-1,2,3,4-tetrahydroisoquinoline-2-carbonyl]-2,3-dihydro-1H-isoindol-5-yl}-N-(4-hydroxyphenyl)-N-methyl-5,6,7,8-tetrahydroindolizine-1-carboxamide] | 26 |
| 7 | C[C@@H]1Cc2ccccc2CN1C(=O)c1cc2c(cc1-c1cc(C(=O)N(c3ccccc3)c3ccc(O)cc3)c3n1CCCC3)CN(C(=O)Oc1ccccc1)C2 [Example 133, Phenyl 5-{1-[(4-hydroxyphenyl)(phenyl)carbamoyl]-5,6,7,8-tetrahydroindolizin-3-yl}-6-[(3R)-3-methyl-1,2,3,4-tetrahydroisoquinoline-2-carbonyl]-2,3-dihydro-1H-isoindole-2-carboxylate] | 8.2 |
| 397 | CN(C(=O)c1cc(-c2cc3c(cc2C(=O)N2Cc4ccccc4C[C@H]2CN2CCOCC2)CNCC3)n2c1CCCC2)c1ccc(O)cc1 [Example 2, N-(4-Hydroxyphenyl)-N-methyl-3-{7-[(3S)-3-(morpholin-4-ylmethyl)-1,2,3,4-tetrahydroisoquinoline-2-carbonyl]-1,2,3,4-tetrahydroisoquinolin-6-yl}-5,6,7,8-tetrahydroindolizine-1-carboxamide dihydrochloride] | > 1880 |
| 55 | Cc1c(C(=O)N(C)c2ccc(O)cc2)cc(-c2cc3c(cc2C(=O)N2Cc4ccccc4C[C@H]2C)CN(C(=O)[C@@H](N)c2ccccc2)C3)n1C [Example 173, 5-(2-[(2S)-2-Amino-2-phenylacetyl]-6-{[(3R)-3-methyl-3,4-dihydroisoquinolin-2(1H)-yl]carbonyl}-2,3-dihydro-1H-isoindol-5-yl)-N-(4-hydroxyphenyl)-N,1,2-trimethyl-1H-pyrrole-3-carboxamide] | > 600 |
| 12 | C[C@@H]1Cc2ccccc2CN1C(=O)c1cc2c(cc1-c1cc(C(=O)N(C)c3ccc(O)cc3)c3n1CCCC3)CCN(C(=O)CCc1ccc(NCCN(C)C)cc1)C2 [Example 138, 3-{2-[3-(4-{[2-(Dimethylamino)ethyl]amino}phenyl)propanoyl]-7-[(3R)-3-methyl-1,2,3,4-tetrahydroisoquinoline-2-carbonyl]-1,2,3,4-tetrahydroisoquinolin-6-yl}-N-(4-hydroxyphenyl)-N-methyl-5,6,7,8-tetrahydroindolizine-1-carboxamide] | 114 |
| 2.6 | CCCN(C(=O)c1cc(-c2cc3c(cc2C(=O)N2Cc4ccccc4C[C@H]2CN2CCOCC2)CN(C(=O)Cc2ccccc2)CC3)n(C)c1C)c1ccc(O)cc1 [Example 781, N-(4-Hydroxyphenyl)-1,2-dimethyl-5-{7-[(3S)-3-(morpholin-4-ylmethyl)-1,2,3,4-tetrahydroisoquinoline-2-carbonyl]-2-(2-phenylacetyl)-1,2,3,4-tetrahydroisoquinolin-6-yl}-N-propyl-1H-pyrrole-3-carboxamide] | 9.7 |
| 47 | CN(C(=O)c1cc(-c2cc3c(cc2C(=O)N2Cc4ccccc4C[C@H]2CN2CCOCC2)CN(S(=O)(=O)c2ccccc2)C3)n2c1CCCC2)c1ccc(O)cc1 [Example 19, 3-[2-(Benzenesulfonyl)-6-[(3S)-3-(morpholin-4-ylmethyl)-1,2,3,4-tetrahydroisoquinoline-2-carbonyl]-2,3-dihydro-1H-isoindol-5-yl]-N-(4-hydroxyphenyl)-N-methyl-5,6,7,8-tetrahydroindolizine-1-carboxamide hydrochloride] | 774 |
| 16 | C[C@@H]1Cc2ccccc2CN1C(=O)c1cc2c(cc1-c1cc(C(=O)N(C)c3ccc(O)cc3)c3n1CCCC3)CN(CCCc1ccccc1)C2 [Example 30, N-(4-Hydroxyphenyl)-N-methyl-3-{6-[(3R)-3-methyl-1,2,3,4-tetrahydroisoquinoline-2-carbonyl]-2-(3-phenylpropyl)-2,3-dihydro-1H-isoindol-5-yl}-5,6,7,8-tetrahydroindolizine-1-carboxamide] | 119 |
| 3.7 | C[C@@H]1Cc2ccccc2CN1C(=O)c1cc2c(cc1-c1cc(C(=O)N(C)c3ccc(O)cc3)c3n1CCCC3)CCN(C(=O)Nc1ccccc1)C2 [Example 71, 6-{1-[(4-Hydroxyphenyl)(methyl)carbamoyl]-5,6,7,8-tetrahydroindolizin-3-yl}-7-[(3R)-3-methyl-1,2,3,4-tetrahydroisoquinoline-2-carbonyl]-N-phenyl-1,2,3,4-tetrahydroisoquinoline-2-carboxamide] | 9.9 |
| 5.1 | C[C@@H]1Cc2ccccc2CN1C(=O)c1cc2c(cc1-c1cc(C(=O)N(C)c3ccc(O)cc3)c3n1CCCC3)CN(C(=O)CNc1ccccc1)C2 [Example 87, N-(4-Hydroxyphenyl)-N-methyl-3-{6-[(3R)-3-methyl-1,2,3,4-tetrahydroisoquinoline-2-carbonyl]-2-[2-(phenylamino)acetyl]-2,3-dihydro-1H-isoindol-5-yl}-5,6,7,8-tetrahydroindolizine-1-carboxamide] | 43 |
| 2.6 | COc1ccc(CC(=O)N2Cc3cc(C(=O)N4Cc5ccccc5C[C@H]4C)c(-c4cc(C(=O)N(C)c5ccc(O)cc5)c(C)n4C)cc3C2)cc1 [Example 101, N-(4-Hydroxyphenyl)-5-{2-[2-(4-methoxyphenyl)acetyl]-6-[(3R)-3-methyl-1,2,3,4-tetrahydroisoquinoline-2-carbonyl]-2,3-dihydro-1H-isoindol-5-yl}-N,1,2-trimethyl-1H-pyrrole-3-carboxamide] | 31 |
| 5.5 | C[C@@H]1Cc2ccccc2CN1C(=O)c1cc2c(cc1-c1cc(C(=O)N(C)c3ccc(O)cc3)c3n1CCCC3)CN(C(=O)COc1ccccc1Cl)C2 [Example 86, 3-{2-[2-(2-Chlorophenoxy)acetyl]-6-[(3R)-3-methyl-1,2,3,4-tetrahydroisoquinoline-2-carbonyl]-2,3-dihydro-1H-isoindol-5-yl}-N-(4-hydroxyphenyl)-N-methyl-5,6,7,8-tetrahydroindolizine-1-carboxamide] | 60 |
| 622 | Cc1c(C(=O)N(C)c2ccccc2)cc(-c2cc3c(cc2C(=O)N2Cc4ccccc4C[C@H]2C)CNCC3)n1C [Example 119, N,1,2-Trimethyl-5-{7-[(3R)-3-methyl-1,2,3,4-tetrahydroisoquinoline-2-carbonyl]-1,2,3,4-tetrahydroisoquinolin-6-yl}-N-phenyl-1H-pyrrole-3-carboxamide hydrochloride] | > 150 |

| Structure (SMILES) | IC50 (Bcl-2 protein) [nM] | IC50 [1] [nM] |
| --- | --- | --- |
| CCc1ccc(OC(=O)N2CCc3cc(-c4cc(C(=O)N(C)c5ccc(O)cc5)c5n4CCCC5)c(C(=O)N4Cc5ccccc5C[C@H]4CN4CCOCC4)cc3C2)cc1 [Example 126, 4-Ethylphenyl 6-{1-[(4-hydroxyphenyl)(methyl)carbamoyl]-5,6,7,8-tetrahydroindolizin-3-yl}-7-[(3S)-3-(morpholin-4-ylmethyl)-1,2,3,4-tetrahydroisoquinoline-2-carbonyl]-1,2,3,4-tetrahydroisoquinoline-2-carboxylate] | 5.9 | 5.2 |
| Cc1c(C(=O)N(C)c2ccc(O)cc2)cc(-c2cc3c(cc2C(=O)N2Cc4ccccc4C[C@H]2CN2CCOCC2)CN(C(=O)Oc2cccc(C(=O)O)c2)CC3)n1C [Example 709, 3-(6-{4-[(4-Hydroxyphenyl)(methyl)carbamoyl]-1,5-dimethyl-1H-pyrrol-2-yl}-7-[(3S)-3-(morpholin-4-ylmethyl)-1,2,3,4-tetrahydroisoquinoline-2-carbonyl]-1,2,3,4-tetrahydroisoquinoline-2-carbonyloxy)benzoic acid] | 4.8 | > 150 |
| Cc1c(C(=O)N(C)c2ccc(O)cc2)cc(-c2cc3c(cc2C(=O)N2Cc4ccccc4C[C@H]2CN2CCN(C)CC2)CN(C(=O)Oc2cccc(C(=O)O)c2)CC3)n1C [Example 733, 3-(6-{4-[(4-Hydroxyphenyl)(methyl)carbamoyl]-1,5-dimethyl-1H-pyrrol-2-yl}-7-[(3S)-3-[(4-methylpiperazin-1-yl)methyl]-1,2,3,4-tetrahydroisoquinoline-2-carbonyl]-1,2,3,4-tetrahydroisoquinoline-2-carbonyloxy)benzoic acid] | 1.5 | > 150 |
| Cc1ccccc1OC(=O)N1CCc2cc(-c3cc(C(=O)N(C)c4ccc(O)cc4)c4n3CCCC4)c(C(=O)N3Cc4ccccc4C[C@H]3CN3CCOCC3)cc2C1 [Example 100, 2-Methylphenyl 6-{1-[(4-hydroxyphenyl)(methyl)carbamoyl]-5,6,7,8-tetrahydroindolizin-3-yl}-7-[(3S)-3-(morpholin-4-ylmethyl)-1,2,3,4-tetrahydroisoquinoline-2-carbonyl]-1,2,3,4-tetrahydroisoquinoline-2-carboxylate] | 3.9 | 6.5 |
